Laboratory results published in article PMC3723537, “Structural Basis for Native Agonist and Synthetic Inhibitor Recognition by the Pseudomonas aeruginosa Quorum Sensing Regulator PqsR (MvfR)” (PLoS Pathogens, 2013).
Where two headings read alike, the source gives them in different places.

Experiments:
PqsR [1] = molecular target: T1, PqsR (Pseudomonas aeruginosa, UniProt Q9I4X0); conditions: cited from earlier work
T1 sequence (Q9I4X0 1-332): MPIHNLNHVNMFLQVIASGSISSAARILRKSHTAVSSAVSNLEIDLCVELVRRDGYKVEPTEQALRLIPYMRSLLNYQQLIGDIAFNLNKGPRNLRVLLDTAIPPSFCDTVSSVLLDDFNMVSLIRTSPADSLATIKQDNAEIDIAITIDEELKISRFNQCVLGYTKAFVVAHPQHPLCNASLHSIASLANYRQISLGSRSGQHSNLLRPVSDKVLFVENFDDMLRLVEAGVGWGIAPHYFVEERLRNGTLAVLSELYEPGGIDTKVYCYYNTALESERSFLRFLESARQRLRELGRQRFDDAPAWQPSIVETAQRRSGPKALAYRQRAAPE

PqsR Leu207Glu = PqsR Leu207Glu (Pseudomonas aeruginosa, UniProt Q9I4X0, L207E); test: Response of PqsR-6His ligand binding site variants to PQS and HHQ, pqsA'-lux in ΔpqsA ΔpqsH ΔpqsR strain; type: cell-based; conditions: Leu207Glu mutation; co-inducer 40 µM
PqsR [2] = molecular target: T1, PqsR; test: cell-based; design: assayed for their agonist and antagonist activities in a whole P. aeruginosa bacterial cell assay; endogenous in cells; host or cells: P. aeruginosa PAO1 wild type, ΔpqsA or ΔpqsAH strains carrying a chromosomal (mini)CTX::pqsA'-lux fusion; conditions: Figure 2 (AQs); P. aeruginosa ΔpqsA CTX::pqsA'-lux strain; read-out: Agonist EC50 ±SD
PqsR [3] = molecular target: T1, PqsR; test: cell-based; design: assayed for their agonist and antagonist activities in a whole P. aeruginosa bacterial cell assay; endogenous in cells; host or cells: P. aeruginosa PAO1 wild type, ΔpqsA or ΔpqsAH strains carrying a chromosomal (mini)CTX::pqsA'-lux fusion
PqsR [4] = molecular target: T1, PqsR; design: assayed for their agonist and antagonist activities in a whole P. aeruginosa bacterial cell assay; endogenous in cells; host or cells: P. aeruginosa PAO1 wild type, ΔpqsA or ΔpqsAH strains carrying a chromosomal (mini)CTX::pqsA'-lux fusion; method as in PMID 17922753; conditions: whole P. aeruginosa cell assays; cited from earlier work
PqsR [5] = molecular target: T1, PqsR; design: assayed for their agonist and antagonist activities in a whole P. aeruginosa bacterial cell assay; endogenous in cells; host or cells: P. aeruginosa PAO1 wild type, ΔpqsA or ΔpqsAH strains carrying a chromosomal (mini)CTX::pqsA'-lux fusion; method as in Xiao et al. [21]; conditions: different P. aeruginosa strain and reporter assay; ref Xiao et al. [21]; cited from earlier work
lecA = type: cell-based; conditions: P. aeruginosa PAO1, compared with control
phzA1 promoter = type: cell-based; conditions: 12.5 µM; data not shown
P. aeruginosa PAO1 [6] = test: Pyocyanin production, quantified spectrophotometrically; type: cell-based, Pseudomonas aeruginosa; conditions: PAO1 cultures, 50 or 100 µM
Method: (§1) The impact of 3-NH2-7Cl-C9-QZN on (a) AQ production was assayed by LC MS/MS after extracting bacterial cultures with acidified ethyl acetate; (b) pyocyanin was quantified spectrophotometrically and (c) biofilm development was examined using a Bioflux 200 microfluidics device (Fluxion Biosciences; in conjunction with GFP-labelled P. aeruginosa strains, [53]). All assays were performed in triplicate at least twice.

P. aeruginosa PAO1 [7] = test: AQ production by LC-MS/MS of culture extracts; type: cell-based, Pseudomonas aeruginosa; conditions: PAO1 grown with 200 µM; semi-quantitative
Method: as §1

P. aeruginosa = type: cell-based; conditions: GFP-tagged wild type, flow conditions
PqsR [8] = molecular target: T1, PqsR; test: cell-based; design: assayed for their agonist and antagonist activities in a whole P. aeruginosa bacterial cell assay; endogenous in cells; host or cells: P. aeruginosa PAO1 wild type, ΔpqsA or ΔpqsAH strains carrying a chromosomal (mini)CTX::pqsA'-lux fusion; remark: listed apart in the source
PqsR [9] = molecular target: T1, PqsR; type: cell-based; design: assayed for their agonist and antagonist activities in a whole P. aeruginosa bacterial cell assay; endogenous in cells; host or cells: P. aeruginosa PAO1 wild type, ΔpqsA or ΔpqsAH strains carrying a chromosomal (mini)CTX::pqsA'-lux fusion; conditions: 100 µM QZN; ΔpqsA mutant

CCCCCCCc1cc(=O)c2ccc(C(F)(F)F)cc2[nH]1 [7-CF3-substituted HHQ]
Agonist activity relative to HHQ (PqsR [1]): about 50%

CCCCCCCc1[nH]c2ccccc2c(=O)c1O [compound 1, 2-heptyl-3-hydroxy-4(1H)-quinolone]
Response, % of pqsA promoter activity with respect to strain expressing PqsR-6His (PqsR Leu207Glu): 39% | EC50 (PqsR [2]): 1.9 µM | EC50 (PqsR [3]; Figure 2 (AQs), P. aeruginosa ΔpqsAH CTX::pqsA'-lux strain, read-out: Agonist EC50 ±SD): 3.8 ± 1.6 µM | Induction of the pqsA promoter compared with HHQ (PqsR [3]; P. aeruginosa ΔpqsA ΔpqsH double mutant): ~3 fold | EC50 for PqsR-dependent activation of pqsA (PqsR [4]): low micromolar range | Induction compared with HHQ (PqsR [5]): 100 fold

CCCCCCCCCc1nc2cc(Cl)ccc2c(=O)n1N [compound 23]
Expression of lecA (lecA): reduced | Reduction of phzA1 promoter activity (phzA1 promoter): ~50% | Pyocyanin levels (P. aeruginosa PAO1 [6]): substantially reduced | Production of HHQ, NHQ, their N-oxides and PQS (P. aeruginosa PAO1 [7]): reduced to very low levels | Biofilm development (P. aeruginosa): reduced surface area coverage | IC50 (PqsR [8]): 5 ± 1.6 µM | PQS concentration that competitively overcomes QZN-mediated PqsR inhibition (PqsR [9]): above 25 µM
